From patent publication US20060089411A1, “Treatment of Stargardt's disease and other lipofuscin disorders with combined retinaldehyde inhibitor and zeaxanthin” (priority 2004, published 2006)

Legend:
[1] = test system: rabbit or bovine RPE cells; conditions: added to RPE cell cultures; high oxygen concentrations or intense blue light; Sundelin 2001, Shaban 2002, Nilsson 2003; cited from earlier work
[2] = high dosage, people with risk factors such as smoking; cited from earlier work
[3] = people taking isotretinoin; decreased acuity under moderately dark conditions; cited from earlier work
[4] = test system: short chain dehydrogenase enzyme that converts 11-cis-retinol into 11-cis-retinal; conditions: Radu et al 2003; cited from earlier work
ABCR −/− mice = conditions: mice with genetically engineered ABCR −/− gene defect; Radu et al 2003, US 2003/032,078; cited from earlier work
RPE65 = conditions: Gollapalli et al 2004; cited from earlier work
[5] = Laser-verteporfin photodynamic therapy in a patient with wet macular degeneration who was taking zeaxanthin; format: in vivo, human; conditions: one patient, zeaxanthin 20 milligrams per day for several months before treatment
Source text: Additional insights arose from a fortuitous event involving an elderly acquaintance of the Applicant, who was taking zeaxanthin and who decided to have a treatment known as “photodynamic therapy”, which uses a laser to convert a drug called verteporfin into a toxin that will kill and seal newly-growing blood vessels in the retina. The patient's doctor, who is regarded as one of the world's foremost experts in treating macular degeneration, advised the patient to stop taking zeaxanthin before the laser treatment, because (in the physician's opinion) it likely would not help, and it might interfere with the laser treatment. That advice was entirely consistent with the packaging information that accompanies verteporfin, which states that carotenoids should be avoided before treatment, since they may interfere with the treatment.
That discovery and invention arose from an event involving a personal acquaintance of the Inventor. That person was suffering from the “wet” or “exudative” form of macular degeneration, which involves abnormal and aggressive blood vessel growth in and behind the macula. They decided to have a treatment known as “photodynamic therapy”, which uses a laser that is shone directly into the eye of a patient who has been anesthetized. […]

Chain of RPE65 (Q16518 whole entry, species assumed): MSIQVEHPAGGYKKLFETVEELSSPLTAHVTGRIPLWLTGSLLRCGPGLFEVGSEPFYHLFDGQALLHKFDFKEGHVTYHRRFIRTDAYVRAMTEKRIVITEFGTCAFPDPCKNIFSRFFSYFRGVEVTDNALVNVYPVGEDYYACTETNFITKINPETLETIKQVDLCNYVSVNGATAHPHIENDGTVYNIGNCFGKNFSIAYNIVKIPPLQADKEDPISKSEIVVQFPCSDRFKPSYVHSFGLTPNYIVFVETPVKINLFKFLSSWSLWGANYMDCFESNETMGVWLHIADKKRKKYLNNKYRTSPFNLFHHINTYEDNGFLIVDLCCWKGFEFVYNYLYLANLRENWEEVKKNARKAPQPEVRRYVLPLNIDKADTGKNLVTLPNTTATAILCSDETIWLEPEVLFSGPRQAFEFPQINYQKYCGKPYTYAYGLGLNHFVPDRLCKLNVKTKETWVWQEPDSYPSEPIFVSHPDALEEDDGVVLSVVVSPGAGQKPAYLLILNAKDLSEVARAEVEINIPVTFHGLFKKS

Compound	formation of lipofuscin [1]	cell toxicity [1]	other results
O=C1O[C@H]([C@@H](O)CO)C(O)=C1O [Vitamin C]	helped suppress cell toxicity and the formation of lipofuscin		
CC1=C(/C=C/C(C)=C/C=C/C(C)=C/C=C/C=C(C)/C=C/C=C(C)/C=C/C2=C(C)CCCC2(C)C)C(C)(C)CCC1 [beta-carotene]			rates and risks of lung cancer [2]: actually increases the rates and risks of lung cancer
CC1=C(/C=C/C(C)=C/C=C/C(C)=C\C(=O)O)C(C)(C)CCC1 [isotretinoin, 13-cis-retinoic acid]			vision side effect [3]: night blindness; inhibition of short chain dehydrogenase [4]: inhibit at least two different enzymes involved in vision; accumulation of lipofuscin in the retinas (ABCR −/− mice): can help slow and reduce the accumulation of lipofuscin; inhibition of RPE65 (RPE65): inhibit at least two different enzymes involved in vision
CC1=C[C@H](O)CC(C)(C)[C@H]1/C=C/C(C)=C/C=C/C(C)=C/C=C/C=C(C)/C=C/C=C(C)/C=C/C1=C(C)C[C@@H](O)CC1(C)C [lutein]	helped suppress cell toxicity and the formation of lipofuscin	helped suppress cell toxicity	
CC(C)=CCC/C(C)=C/C=C/C(C)=C/C=C/C(C)=C/C=C/C=C(C)/C=C/C=C(C)/C=C/C=C(\C)CCC=C(C)C [lycopene]	helped suppress cell toxicity and the formation of lipofuscin	helped suppress cell toxicity	
CC1=C(/C=C/C(C)=C/C=C/C(C)=C/C=C/C=C(C)/C=C/C=C(C)/C=C/C2=C(C)C[C@@H](O)CC2(C)C)C(C)(C)C[C@H](O)C1 [zeaxanthin, 3R,3′R-zeaxanthin]	helped suppress cell toxicity and the formation of lipofuscin	helped suppress cell toxicity	results of the laser-verteporfin treatment [5]: much better than anyone had expected
Vitamin E	helped suppress cell toxicity and the formation of lipofuscin	helped suppress cell toxicity	
